Assay results: patent US7253286B2, “Nitrogen-containing aromatic derivatives” (Eisai Co., Ltd, priority 2000, dated 2007)

Biological target: T1, VEGFR2 (Homo sapiens, UniProt P35968)
T1 construct: coding for the cytoplasmic domain, beginning with lysine 791 and including the termination codon; made in house; host or cells: Sf9 insect cells (baculovirus, pFastBacHis)
Test: Inhibition against VEGFR2 kinase (receptor tyrosine kinase activity, HTRF method)
Format: biochemical
Details: His6-VEGFR2 cytoplasmic domain, biotin-poly(GT) substrate, ATP, 30° C. 10 minutes, read-out: IC50 (concentration required for 50% inhibition of VEGFR2 kinase activity)
Procedure, shortened: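 Construct: His6-tagged VEGFR2 cytoplasmic domain (from Lys791), expressed in Sf9 cells. Kinase step: biotin-poly(Glu4:Tyr1) substrate, ATP added as 10 μl of 4 μM, Hepes pH 7.4 with Mg2+/Mn2+, 30 °C for 10 min, EDTA stop. Phosphotyrosine product measured by HTRF.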

T1 sequence (P35968 786-1356 limits assumed): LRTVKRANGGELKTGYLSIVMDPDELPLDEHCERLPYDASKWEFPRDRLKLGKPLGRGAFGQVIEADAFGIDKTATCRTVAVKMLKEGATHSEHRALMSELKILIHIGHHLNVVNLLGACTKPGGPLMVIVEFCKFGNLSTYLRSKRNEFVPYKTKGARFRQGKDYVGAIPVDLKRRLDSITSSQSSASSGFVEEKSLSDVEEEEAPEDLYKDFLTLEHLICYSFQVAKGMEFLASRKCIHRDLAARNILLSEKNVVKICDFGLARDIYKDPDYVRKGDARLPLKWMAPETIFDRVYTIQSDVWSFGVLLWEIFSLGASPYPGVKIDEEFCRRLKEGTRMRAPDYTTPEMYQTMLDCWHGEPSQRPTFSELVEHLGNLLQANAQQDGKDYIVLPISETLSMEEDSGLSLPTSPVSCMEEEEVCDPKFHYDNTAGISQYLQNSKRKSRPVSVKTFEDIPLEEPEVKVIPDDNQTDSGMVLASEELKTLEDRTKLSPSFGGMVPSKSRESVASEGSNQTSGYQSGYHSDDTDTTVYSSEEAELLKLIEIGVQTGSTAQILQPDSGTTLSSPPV

| IC50 [nM] | Structure (SMILES) |
| --- | --- |
| 6.5 | COc1cc2nccc(Oc3ccc(NC(=O)NC4CC4)c(Cl)c3)c2cc1C(=O)NCCS(C)(=O)=O [Example 404, N6-(2-(Methylsulfonyl)ethyl)-4-(3-chloro-4-(((cyclopropylamino)carbonyl)amino)phenoxy)-7-methoxy-6-quinolinecarboxamide] |
| 8.4 | NC(=O)c1cc2c(Oc3ccc(NC(=O)NC4CC4)c(F)c3)ccnc2cc1OCCCN1CCOCC1 [Example 374, 4-(4-(Cyclopropylaminocarbonyl)amino-3-fluorophenoxy)-7-(3-(4-morpholino)propoxy)-6-quinolinecarboxamide] |
| 6.4 | CCNC(=O)n1ccc2cc(Oc3ccnc4cc(OC)c(C(N)=O)cc34)ccc21 [Example 316, 6-Carbamoyl-4-(1-ethylcarbamoyl-1H-indol-5-yloxy)-7-methoxyquinoline] |
| 29 | N#CCCCOc1cc2nccc(Oc3ccc(NC(=O)Nc4ccc(F)cc4F)c(F)c3)c2cc1C#N [Example 55, N-(4-(6-Cyano-7-(3-cyanopropoxy)-4-quinolyl)oxy-2-fluorophenyl)-N′-(2,4-difluorophenyl)urea] |
| 9.6 | COCCOc1cc2nccc(Oc3ccc(NC(=O)Nc4ccc(F)cc4)c(F)c3)c2cc1C#N [Example 100, N-(4-(6-Cyano-7-(2-methoxyethoxy)-4-quinolyl)oxy-2-fluorophenyl)-N′-(4-fluorophenyl)urea] |
